pIC50: −log10 of the molar value.
Molecular target: T1, P2X7 receptor (Homo sapiens, UniProt Q99572)
T1 construct: host or cells: THP-1 cells differentiated with LPS and IFN-γ
T1 sequence (Q99572 1-595): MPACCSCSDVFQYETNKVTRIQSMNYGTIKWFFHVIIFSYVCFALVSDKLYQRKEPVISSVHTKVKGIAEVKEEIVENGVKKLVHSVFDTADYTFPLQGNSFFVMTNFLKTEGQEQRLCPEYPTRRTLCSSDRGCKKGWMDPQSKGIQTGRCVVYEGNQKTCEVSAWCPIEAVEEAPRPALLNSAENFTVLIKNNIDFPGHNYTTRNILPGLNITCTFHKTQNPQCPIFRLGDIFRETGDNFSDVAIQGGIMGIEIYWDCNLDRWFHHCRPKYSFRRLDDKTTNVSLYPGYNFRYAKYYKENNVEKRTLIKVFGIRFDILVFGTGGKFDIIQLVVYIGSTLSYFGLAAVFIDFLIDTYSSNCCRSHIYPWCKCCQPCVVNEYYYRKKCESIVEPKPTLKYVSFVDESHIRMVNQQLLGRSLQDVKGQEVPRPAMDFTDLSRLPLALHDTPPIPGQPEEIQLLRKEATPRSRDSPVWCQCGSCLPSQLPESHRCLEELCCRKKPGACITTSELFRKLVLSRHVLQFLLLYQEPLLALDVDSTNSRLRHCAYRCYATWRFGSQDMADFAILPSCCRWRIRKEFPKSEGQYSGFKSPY
Experiment: IL-1β release assay in differentiated THP-1 cells stimulated with BzATP (Example 9)
Assay type: cell-based
Set-up: inhibition: dose or concentration left out as unconfirmed
Conditions: for inhibition at 0.3 µM: 0.3 μM compound, symbols + to ++++, read-out: IL-1β % Inhib. @ 0.3 μM; for inhibition at 0.3 µM / inhibition at 0.1 µM: differentiated THP-1 cells, BzATP 250 uM; for pIC50: THP-1 cells, BzATP-stimulated IL-1β release, four parameter logistic fit; for inhibition at 0.1 µM: 0.1 μM compound, symbols * to ****, read-out: IL-1β % Inhib. (asterisk symbols: at 0.1 μM); for inhibition: THP-1, read-out: IL-1β % Inhib.
Summary of the method: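 THP-1 cells differentiated 16 h with LPS and IFN-γ (100 ng/mL each), re-primed 2 h with LPS, then compound-pretreated 30 min before 250 uM BzATP for 45 min. Supernatant IL-1β quantified by ELISA; background-adjusted percent inhibition fitted to four-parameter logistic for IC50.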

| SMILES | inhibition at 0.3 µM | pIC50 | further results |
| --- | --- | --- | --- |
| COc1cccc(CC(=O)Nc2cccc3c(=O)n(Cc4cccnc4)ccc23)c1 [Compound 1353] | 0 to 25% |  |  |
| COc1ccc(CC(=O)Nc2cccc3c(=O)n(Cc4cccnc4)ccc23)cc1OC [Compound 1354] | 0 to 25% |  |  |
| O=C(Nc1cccc2c(=O)n(Cc3cccnc3)ccc12)c1cc2ccccc2o1 [Compound 1358] | 0 to 25% |  |  |
| COc1cc(CC(=O)Nc2cccc3c(=O)n(Cc4cccnc4)ccc23)cc(OC)c1 [Compound 1360] | 26 to 50% |  |  |
| COc1c(C)cc(C(=O)Nc2cccc3c(=O)n(Cc4cccnc4)ccc23)cc1C [Compound 1361] | 0 to 25% |  |  |
| O=C(Nc1cccc2c(=O)n(Cc3cccnc3)ccc12)c1cccc2c1OCCO2 [Compound 1363] | 0 to 25% |  |  |
| CCOc1ccccc1CC(=O)Nc1cccc2c(=O)n(Cc3cccnc3)ccc12 [Compound 1366] | 26 to 50% | 6.39 |  |
| COc1ccc(CC(=O)Nc2cccc3c(=O)n(Cc4cccnc4)ccc23)cc1C [Compound 1367] | 0 to 25% |  |  |
| COc1ccc(C(=O)Nc2cccc3c(=O)n(Cc4cccnc4)ccc23)cc1C [Compound 1371] | 0 to 25% |  |  |
| CC(C)Cc1ccc(C(=O)Nc2cccc3c(=O)n(Cc4cccnc4)ccc23)cc1 [Compound 1372] | 0 to 25% |  |  |
| CC(=O)OCCn1ccc2c(NC(=O)CCc3cc(C(F)(F)F)ccc3C(F)(F)F)cccc2c1=O [Compound 1374] | ≥ 76% | 7.39 |  |
| CC(=O)OCCn1ccc2c(NC(=O)CC3CCCCCC3)cccc2c1=O [Compound 1375] | ≥ 76% | 7.06 |  |
| CC(=O)OCCn1ccc2c(NC(=O)Cc3ccc4c(c3)OCCO4)cccc2c1=O [Compound 1377] | 0 to 25% | < 6.00 |  |
| CC(=O)OCCn1ccc2c(NC(=O)Cc3ccc(Cl)c(C(F)(F)F)c3)cccc2c1=O [Compound 1380, Acetic acid 2-{5-[2-(4-chloro-3-trifluoromethyl-phenyl)-acetylamino]-1-oxo-1H-isoquinolin-2-yl}-ethyl ester] | ≥ 76% | 8.27 |  |
| CC(=O)OCCn1ccc2c(NC(=O)Cc3ccc(Cl)cc3Cl)cccc2c1=O [Compound 1381] | ≥ 76% | 7.47 |  |
| CC(=O)OCCn1ccc2c(NC(=O)Cc3cc(C(F)(F)F)ccc3C(F)(F)F)cccc2c1=O [Compound 1382] | 26 to 50% | 6.22 |  |
| CC(=O)OCCn1ccc2c(NC(=O)CCc3ccc(S(C)(=O)=O)cc3)cccc2c1=O [Compound 1383] | 0 to 25% | < 6.00 |  |
| CC(=O)OCCn1ccc2c(NC(=O)Cc3ccc(S(C)(=O)=O)cc3)cccc2c1=O [Compound 1384] | 0 to 25% | < 6.00 |  |
| CN(C)CCn1ccc2c(NC(=O)Cc3ccc(Cl)c(C(F)(F)F)c3)cccc2c1=O [Compound 1385] | ≥ 76% | 6.82 |  |
| CN(C)CCn1ccc2c(NC(=O)Cc3ccc(Cl)cc3Cl)cccc2c1=O [Compound 1387] | 51 to 75% | 6.83 |  |
| CN(C)CCn1ccc2c(NC(=O)CC3(O)CC(C)(C)CC(C)(C)C3)cccc2c1=O [Compound 1390] | ≥ 76% | 7.10 |  |
| CC(C(=O)Nc1cccc2c(=O)n(CCN(C)C)ccc12)c1ccc(Cl)cc1 (centres unmarked) [Compound 1391] | ≥ 76% | 7.34 |  |

| SMILES | inhibition at 0.3 µM | pIC50 | further results |
| --- | --- | --- | --- |
| COCCn1ccc2c(NC(=O)Cc3ccc(Cl)c(Cl)c3)cccc2c1=O [Compound 1392] | 51 to 75% | 6.91 |  |
| COCCn1ccc2c(NC(=O)CC3(O)CC(C)(C)CC(C)(C)C3)cccc2c1=O [Compound 1393] | ≥ 76% | 7.11 |  |
| COc1ccc(C(=O)Nc2cccc3c(=O)n(CC4CCOCC4)ccc23)c(C)c1 [Compound 1394] |  |  | inhibition at 0.1 µM: 0 to 25% |
| C[C@H]1CC[C@H](C(=O)Nc2cccc3c(=O)n(CC4CCOCC4)ccc23)CC1 [Compound 1395] |  |  | inhibition at 0.1 µM: 0 to 25% |
| Cc1ccccc1CCC(=O)Nc1cccc2c(=O)n(CC3CCOCC3)ccc12 [Compound 1396] |  |  | inhibition at 0.1 µM: 0 to 25% |
| CCOc1ccc(C(=O)Nc2cccc3c(=O)n(CCN(C)C)ccc23)c(O)c1 [Compound 1397] |  |  | inhibition at 0.1 µM: 0 to 25% |
| COc1ccc(C(=O)Nc2cccc3c(=O)n(CCN(C)C)ccc23)c(C)c1 [Compound 1398] |  |  | inhibition: 0 to 25% |
| Cc1ccccc1CCC(=O)Nc1cccc2c(=O)n(CCN(C)C)ccc12 [Compound 1399] |  |  | inhibition: 0 to 25% |
| COc1cccc(CCC(=O)Nc2cccc3c(=O)n(CCN(C)C)ccc23)c1 [Compound 1400] |  |  | inhibition: 26 to 50% |
| Cc1ccc(C)c(CC(=O)Nc2cccc3c(=O)n(CCN(C)C)ccc23)c1 [Compound 1401] |  |  | inhibition: 0 to 25% |
| COc1ccc(C(=O)Nc2cccc3c(=O)n(CCN(C)C)ccc23)cc1Cl [Compound 1402] |  |  | inhibition: 0 to 25% |
| CCOc1ccc(C(=O)Nc2cccc3c(=O)n(CCN4CCOCC4)ccc23)c(O)c1 [Compound 1403] |  |  | inhibition: 0 to 25% |
| Cc1ccccc1CCC(=O)Nc1cccc2c(=O)n(CCN3CCOCC3)ccc12 [Compound 1404] |  |  | inhibition: 0 to 25% |
| COc1ccc(C(=O)Nc2cccc3c(=O)n(CC(C)(C)C)ccc23)c(C)c1 [Compound 1405] |  |  | inhibition: 0 to 25% |
| Cc1ccccc1CCC(=O)Nc1cccc2c(=O)n(Cc3cccnc3)ccc12 [Compound 1406] |  |  | inhibition: 0 to 25% |
| CCOc1cccc(C(=O)Nc2cccc3c(=O)n(Cc4cccnc4)ccc23)c1 [Compound 1407] |  |  | inhibition: 0 to 25% |
| O=C(Nc1cccc2c(=O)n(CC3CCOCC3)ccc12)c1ccc(-c2ccccc2)cc1 [Compound 1408] |  |  | inhibition: 0 to 25% |
| COc1ccccc1CC(=O)Nc1cccc2c(=O)n(CCN(C)C)ccc12 [Compound 1409] |  |  | inhibition: 0 to 25% |
| O=C(Nc1cccc2c(=O)n(CCN3CCOCC3)ccc12)c1cccc2ccccc12 [Compound 1410] |  |  | inhibition: 0 to 25% |
| O=C(Nc1cccc2c(=O)n(CCN3CCOCC3)ccc12)c1ccc2ccccc2c1 [Compound 1411] |  |  | inhibition: 0 to 25% |
| CC(C)(C)Cn1ccc2c(NC(=O)c3cc(Cl)ccc3Cl)cccc2c1=O [Compound 1412] |  |  | inhibition: 0 to 25% |
| Cc1ccccc1C(=O)Nc1cccc2c(=O)n(CC(C)(C)C)ccc12 [Compound 1413] |  |  | inhibition: 0 to 25% |

Second part, led by results:

| inhibition at 0.3 µM | pIC50 | SMILES | further results |
| --- | --- | --- | --- |
| 0 to 25% |  | COc1ccc(CC(=O)Nc2cccc3c(=O)n(Cc4cccnc4)ccc23)cc1 [Compound 1355] |  |
| 0 to 25% |  | Cc1ccc(CC(=O)Nc2cccc3c(=O)n(Cc4cccnc4)ccc23)cc1 [Compound 1356] |  |
| 0 to 25% |  | O=C(CCCc1ccccc1)Nc1cccc2c(=O)n(Cc3cccnc3)ccc12 [Compound 1357] |  |
| 26 to 50% |  | O=C(Cc1ccc2c(c1)OCO2)Nc1cccc2c(=O)n(Cc3cccnc3)ccc12 [Compound 1359] |  |
| 0 to 25% |  | O=C(Nc1cccc2c(=O)n(Cc3cccnc3)ccc12)[C@@]12C[C@@H]3C[C@@H](C[C@@H]1C3)C2 [Compound 1362] |  |
| 0 to 25% |  | O=C(Nc1cccc2c(=O)n(Cc3cccnc3)ccc12)c1ccc2c(c1)OCCCO2 [Compound 1364] |  |
| 0 to 25% |  | COc1ccc(CC(=O)Nc2cccc3c(=O)n(Cc4cccnc4)ccc23)c(OC)c1 [Compound 1365] |  |
| 0 to 25% |  | Cc1ccc(Cl)cc1C(=O)Nc1cccc2c(=O)n(Cc3cccnc3)ccc12 [Compound 1368] |  |
| 0 to 25% |  | Cc1cccc(CCC(=O)Nc2cccc3c(=O)n(Cc4cccnc4)ccc23)c1 [Compound 1369] |  |
| 0 to 25% |  | Cc1cccc(C(=O)Nc2cccc3c(=O)n(Cc4cccnc4)ccc23)c1Cl [Compound 1370] |  |
| ≥ 76% | 7.14 | O=C(CC1CCCCCC1)Nc1cccc2c(=O)n(CC3CCOCC3)ccc12 [Compound 1373, 2-Cycloheptyl-N-[1-oxo-2-(tetrahydro-pyran-4-ylmethyl)-1,2-dihydro-isoquinolin-5-yl]-acetamide] |  |
| 0 to 25% | 6.14 | CC(=O)OCCn1ccc2c(NC(=O)CCc3cc(C(F)(F)F)cc(C(F)(F)F)c3)cccc2c1=O [Compound 1376] |  |
| 51 to 75% | 6.92 | CC(=O)OCCn1ccc2c(NC(=O)Cc3cc(C(F)(F)F)cc(C(F)(F)F)c3)cccc2c1=O [Compound 1378] |  |
| ≥ 76% | 7.38 | CC(=O)OCCn1ccc2c(NC(=O)CC3CCCCC3)cccc2c1=O [Compound 1379] |  |
| 51 to 75% | 6.62 | CN(C)CCn1ccc2c(NC(=O)Cc3ccc(Cl)c(Cl)c3)cccc2c1=O [Compound 1386] |  |
| 0 to 25% | < 6.00 | CN(C)CCn1ccc2c(NC(=O)CC3(O)CCCCCC3)cccc2c1=O [Compound 1388] |  |
| 26 to 50% | 6.51 | CN(C)CCn1ccc2c(NC(=O)CC3CCCCCC3)cccc2c1=O [Compound 1389] |  |
